{
  "source": "patent US9527849B2",
  "about": "“Salt and polymorph of pyrazolopyrimidinone compound, and pharmaceutical composition containing the same, preparation method and use thereof” (TOPHARMAN SHANGHAI CO., LTD., priority 2011, dated 2016)",
  "key": {"[1]": {"assay": "Comparison of appearance, characters and odor", "assay_type": "physicochemical", "text": "The basic compound Z and various salts of compound Z were selected to compare the appearance and characters."}, "PDE3": {"molecular_target": "PDE3", "assay": "In vitro activity against PDE isoenzyme", "assay_type": "biochemical"}, "[2]": {"test_system": "rats cavernous body pressure/arterial blood pressure (ICP/BP)", "assay": "Erectile dysfunction (ED) efficacy trial in vivo in rats, method of WO2007056955", "conditions": "Dose 10 mg/kg, after the administration, 10 mg/kg"}, "[3]": {"test_system": "rats with pulmonary arterial hypertension", "assay": "Pulmonary arterial hypertension (PAH) rats, chronic oral administration", "assay_type": "in vivo", "conditions": "each dose group, FIG. 17", "text": "(§1) The effects of maleate of compound Z on pulmonary artery pressure of pulmonary arterial hypertension rats were studied according to the method described in the reference (J Pharmacol Sci, 111, 235-243 (2009))."}, "PDE9": {"molecular_target": "PDE9 (Homo sapiens, UniProt O76083)", "sequence (O76083 whole entry)": "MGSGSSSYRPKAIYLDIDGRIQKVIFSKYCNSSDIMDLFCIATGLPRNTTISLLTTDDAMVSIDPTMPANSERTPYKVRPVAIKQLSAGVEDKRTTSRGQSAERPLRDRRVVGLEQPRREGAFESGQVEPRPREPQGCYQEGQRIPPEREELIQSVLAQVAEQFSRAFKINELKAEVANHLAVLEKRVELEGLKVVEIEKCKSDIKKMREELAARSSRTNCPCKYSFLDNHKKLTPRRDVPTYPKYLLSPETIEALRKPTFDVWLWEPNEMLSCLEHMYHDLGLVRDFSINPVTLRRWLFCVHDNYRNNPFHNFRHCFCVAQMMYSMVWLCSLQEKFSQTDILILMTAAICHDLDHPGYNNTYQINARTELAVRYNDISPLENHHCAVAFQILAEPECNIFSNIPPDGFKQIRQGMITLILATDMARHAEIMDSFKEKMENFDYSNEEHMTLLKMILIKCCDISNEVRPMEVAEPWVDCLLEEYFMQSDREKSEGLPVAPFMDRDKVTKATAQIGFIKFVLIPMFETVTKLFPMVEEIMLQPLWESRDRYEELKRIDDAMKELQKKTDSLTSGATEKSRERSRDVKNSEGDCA", "assay": "In vitro activity against PDE isoenzyme", "assay_type": "biochemical"}, "PDE6": {"molecular_target": "PDE6", "assay": "In vitro activity against PDE isoenzyme", "assay_type": "biochemical"}, "PDE2": {"molecular_target": "PDE2 (Homo sapiens, UniProt O00408)", "sequence (O00408 whole entry)": "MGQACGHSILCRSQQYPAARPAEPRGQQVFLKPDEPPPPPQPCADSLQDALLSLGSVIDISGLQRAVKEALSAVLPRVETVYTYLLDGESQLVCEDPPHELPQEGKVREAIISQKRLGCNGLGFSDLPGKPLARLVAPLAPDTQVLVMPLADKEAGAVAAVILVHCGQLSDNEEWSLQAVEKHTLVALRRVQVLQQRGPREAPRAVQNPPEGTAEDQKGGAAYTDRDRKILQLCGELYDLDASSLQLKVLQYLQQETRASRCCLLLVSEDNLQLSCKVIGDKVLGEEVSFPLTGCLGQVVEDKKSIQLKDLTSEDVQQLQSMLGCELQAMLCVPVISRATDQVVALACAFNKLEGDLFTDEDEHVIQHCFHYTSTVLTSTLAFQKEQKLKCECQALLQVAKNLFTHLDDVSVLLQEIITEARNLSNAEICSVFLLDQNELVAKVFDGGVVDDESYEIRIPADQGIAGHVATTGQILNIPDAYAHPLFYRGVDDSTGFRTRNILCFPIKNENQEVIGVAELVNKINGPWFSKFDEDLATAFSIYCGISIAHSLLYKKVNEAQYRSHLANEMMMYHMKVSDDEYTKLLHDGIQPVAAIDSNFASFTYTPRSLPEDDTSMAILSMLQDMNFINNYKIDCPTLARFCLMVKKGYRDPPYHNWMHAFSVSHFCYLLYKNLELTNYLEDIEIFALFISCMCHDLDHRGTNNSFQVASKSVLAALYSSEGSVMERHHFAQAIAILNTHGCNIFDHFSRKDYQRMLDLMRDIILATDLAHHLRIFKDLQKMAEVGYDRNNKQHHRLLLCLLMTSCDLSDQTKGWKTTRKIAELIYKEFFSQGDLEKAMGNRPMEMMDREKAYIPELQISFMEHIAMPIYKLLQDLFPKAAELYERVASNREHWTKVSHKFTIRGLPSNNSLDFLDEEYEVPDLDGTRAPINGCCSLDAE", "assay": "In vitro activity against PDE isoenzyme", "assay_type": "biochemical"}, "PDE8": {"molecular_target": "PDE8", "assay": "In vitro activity against PDE isoenzyme", "assay_type": "biochemical"}, "[4]": {"assay": "Comparison of solubility in water and buffer solutions", "assay_type": "physicochemical", "conditions": "thermodynamic from solid", "protocol": "The basic compound Z and various salts of compound Z were selected to compare the solubility. Appropriate amount of sample was weighed, placed in glass tubes. The predetermined solvent was added gradually and the extension of clear of the solution was observed. The solvent included the follows: pure water (pH 6.2), hydrochloric acid solution (pH1.0), a standard potassium hydrogen phthalate buffer solution (pH 4.0), and a mixed phosphate buffer solution (pH 6.86)."}, "[5]": {"assay": "Hygroscopicity, moisture weight gain in desiccator", "assay_type": "physicochemical", "protocol": "The hygroscopicities of various salts of compound Z were studied. A certain amount of the sample was placed in a precisely-weighted glass weighing bottle with a stopper to accurately weight. Then the open glass weighing bottle was placed in a desiccator (the saturated potassium nitrate solution was placed at the lower part of the desiccator, the relative humidity was 92.5%) and stood for 48 hours at room temperature. And then the glass weighing bottle was covered with the stopper and weighted again. The absorbent weight can be calculated."}, "[6]": {"test_system": "rats with pulmonary arterial hypertension", "assay": "Pulmonary arterial hypertension (PAH) rats, single intravenous administration", "assay_type": "in vivo", "conditions": "single intravenous administration of 1 mg/kg, FIG. 18", "text": "as §1"}, "PDE5": {"molecular_target": "PDE5 (Homo sapiens, UniProt O76074)", "assay": "In vitro activity against PDE isoenzyme", "assay_type": "biochemical"}, "PDE11": {"molecular_target": "PDE11 (Homo sapiens, UniProt Q9HCR9)", "sequence (Q9HCR9 whole entry)": "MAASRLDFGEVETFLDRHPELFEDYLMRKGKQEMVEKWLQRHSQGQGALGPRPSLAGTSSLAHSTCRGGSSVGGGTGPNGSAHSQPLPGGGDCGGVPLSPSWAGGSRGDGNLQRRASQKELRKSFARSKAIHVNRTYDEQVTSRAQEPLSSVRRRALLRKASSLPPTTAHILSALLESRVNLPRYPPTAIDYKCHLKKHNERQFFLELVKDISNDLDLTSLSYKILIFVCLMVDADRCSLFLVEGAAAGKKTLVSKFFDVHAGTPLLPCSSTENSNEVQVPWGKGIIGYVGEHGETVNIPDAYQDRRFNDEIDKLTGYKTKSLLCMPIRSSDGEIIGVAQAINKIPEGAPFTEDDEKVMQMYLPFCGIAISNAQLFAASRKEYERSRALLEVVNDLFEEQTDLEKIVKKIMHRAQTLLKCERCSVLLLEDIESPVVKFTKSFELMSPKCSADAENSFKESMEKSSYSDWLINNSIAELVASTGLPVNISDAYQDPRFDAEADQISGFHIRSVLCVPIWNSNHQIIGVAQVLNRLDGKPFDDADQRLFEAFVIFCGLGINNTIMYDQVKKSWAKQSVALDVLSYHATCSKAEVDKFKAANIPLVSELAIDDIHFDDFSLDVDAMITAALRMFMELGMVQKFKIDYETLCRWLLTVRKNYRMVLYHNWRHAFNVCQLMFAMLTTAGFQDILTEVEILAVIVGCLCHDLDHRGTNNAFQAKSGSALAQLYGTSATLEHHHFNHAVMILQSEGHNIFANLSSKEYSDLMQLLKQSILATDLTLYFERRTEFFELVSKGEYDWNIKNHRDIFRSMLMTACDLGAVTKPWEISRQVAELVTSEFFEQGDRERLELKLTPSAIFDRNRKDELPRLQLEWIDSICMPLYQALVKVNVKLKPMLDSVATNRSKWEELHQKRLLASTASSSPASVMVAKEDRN", "assay": "In vitro activity against PDE isoenzyme", "assay_type": "biochemical"}, "PDE7": {"molecular_target": "PDE7", "assay": "In vitro activity against PDE isoenzyme", "assay_type": "biochemical"}, "PDE10": {"molecular_target": "PDE10 (Homo sapiens, UniProt Q9Y233)", "sequence (Q9Y233 whole entry)": "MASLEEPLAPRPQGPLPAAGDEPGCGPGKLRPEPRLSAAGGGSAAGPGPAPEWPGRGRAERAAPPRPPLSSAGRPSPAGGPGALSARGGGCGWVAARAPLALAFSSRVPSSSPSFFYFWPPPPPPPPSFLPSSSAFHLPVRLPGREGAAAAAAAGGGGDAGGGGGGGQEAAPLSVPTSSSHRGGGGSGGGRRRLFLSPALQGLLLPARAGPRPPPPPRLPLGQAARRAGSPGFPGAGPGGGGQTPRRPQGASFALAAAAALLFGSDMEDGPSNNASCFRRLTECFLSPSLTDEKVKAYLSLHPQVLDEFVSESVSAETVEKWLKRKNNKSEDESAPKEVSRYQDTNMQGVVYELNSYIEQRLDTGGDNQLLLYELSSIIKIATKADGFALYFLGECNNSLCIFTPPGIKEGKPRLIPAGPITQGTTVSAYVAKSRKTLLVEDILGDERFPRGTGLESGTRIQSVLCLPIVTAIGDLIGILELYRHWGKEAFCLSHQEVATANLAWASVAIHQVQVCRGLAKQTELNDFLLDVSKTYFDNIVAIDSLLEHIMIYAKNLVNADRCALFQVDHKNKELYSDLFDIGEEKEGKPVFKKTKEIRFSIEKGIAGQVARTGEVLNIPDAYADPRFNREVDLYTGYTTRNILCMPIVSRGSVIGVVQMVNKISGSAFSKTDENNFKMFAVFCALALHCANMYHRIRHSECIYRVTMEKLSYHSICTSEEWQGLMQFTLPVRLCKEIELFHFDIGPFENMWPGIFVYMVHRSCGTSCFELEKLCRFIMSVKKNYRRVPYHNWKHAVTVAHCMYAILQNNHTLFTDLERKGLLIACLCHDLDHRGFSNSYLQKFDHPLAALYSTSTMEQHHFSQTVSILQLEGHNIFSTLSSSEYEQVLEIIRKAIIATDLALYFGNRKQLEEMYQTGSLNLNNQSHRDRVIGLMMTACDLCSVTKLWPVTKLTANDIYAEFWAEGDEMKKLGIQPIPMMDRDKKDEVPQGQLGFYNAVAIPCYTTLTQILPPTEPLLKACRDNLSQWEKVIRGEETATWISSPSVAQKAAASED", "assay": "In vitro activity against PDE isoenzyme", "assay_type": "biochemical"}, "[7]": {"test_system": "cavernous pressure in rats", "assay": "Cavernous pressure in rats induced by electric stimulus to the erectile nerve (ED)", "assay_type": "in vivo", "conditions": "rat, 2.50-5.00 mg/kg through duodenum; FIG. 19", "text": "The effect of maleate of compound Z on the cavernous pressure variation in rats induced by the electric stimulus to the erectile nerve was studied according to the method described in the reference (International Journal of Impotence Research (2002) 14, 251-255)."}, "[8]": {"assay": "Comparison of salts and crystalline forms (crystal water, static, stability, component, crystalline form)", "assay_type": "physicochemical"}, "PDE1": {"molecular_target": "PDE1", "assay": "In vitro activity against PDE isoenzyme", "assay_type": "biochemical"}, "[9]": {"assay": "Impact factor stability test (high temperature, high humidity, light exposure)", "assay_type": "physicochemical", "text": "The basic compounds of compound Z and the maleate thereof were selected to compare the chemical stability through an impact factor test, and results were shown in Table 8: […]"}, "PDE4": {"molecular_target": "PDE4", "assay": "In vitro activity against PDE isoenzyme", "assay_type": "biochemical"}},
  "note": "Where a name gives a salt, the structure may show the parent alone. Read-outs that look alike come from different tables or passages of the source.",
  "data": [
    {"molecule": "CCCOc1ccc(S(=O)(=O)N(C)CCN2CCCC2)cc1-c1nc2c(CCC)nn(C)c2c(=O)[nH]1", "note": "[Maleate of compound Z, 1-methyl-5-{2-propoxy-5-[[1-methyl-1-(2-pyrrolidin-1-yl)ethyl]aminosulfonyl]phenyl}-3-propyl-1,6-dihydro-7H-pyrazolo[4,3-D]pyrimidin-7-one maleate]", "values": [
      {"measurement": "Characters", "setting": "[1]", "value": "white solid"},
      {"measurement": "Odor", "setting": "[1]", "value": "no bad smell"},
      {"measurement": "IC50", "setting": "PDE3; PDE3", "value": 22, "unit": "µM"},
      {"measurement": "IC50(PDEs)/IC50(PDE5)", "setting": "PDE3; PDE3 vs PDE5", "value": 9649},
      {"measurement": "ICP/BP increasing rate (%)", "setting": "[2]", "value": "80.99 ± 17.01", "unit": "%"},
      {"measurement": "pulmonary arterial pressure compared with the model group", "setting": "[3]", "value": "significantly reduce"},
      {"measurement": "pulmonary arterial pressure compared with the positive control group", "setting": "[3]", "value": "no significant difference"},
      {"measurement": "IC50", "setting": "PDE9; PDE9", "value": "> 100", "unit": "µM"},
      {"measurement": "IC50(PDEs)/IC50(PDE5)", "setting": "PDE9; PDE9 vs PDE5", "value": ">10000"},
      {"measurement": "IC50", "setting": "PDE6; PDE6", "value": 0.0452, "unit": "µM"},
      {"measurement": "IC50(PDEs)/IC50(PDE5)", "setting": "PDE6; PDE6 vs PDE5", "value": 20},
      {"measurement": "IC50", "setting": "PDE2; PDE2", "value": "> 100", "unit": "µM"},
      {"measurement": "IC50(PDEs)/IC50(PDE5)", "setting": "PDE2; PDE2 vs PDE5", "value": ">10000"},
      {"measurement": "IC50", "setting": "PDE8; PDE8", "value": "> 100", "unit": "µM"},
      {"measurement": "IC50(PDEs)/IC50(PDE5)", "setting": "PDE8; PDE8 vs PDE5", "value": ">10000"},
      {"measurement": "solubility", "setting": "[4]; hydrochloric acid solution, pH 1, simulated gastric fluid, hydrochloric acid solution (pH 1.0), read-out: Solubility, hydrochloric acid solution (pH 1.0)", "value": "> 42", "unit": "mg/mL"},
      {"measurement": "solubility", "setting": "[4]; mixed phosphate buffer solution, pH 6.86, aqueous buffer, mixed phosphate buffer solution (pH 6.86), read-out: Solubility, buffer solution (pH 6.86)", "value": "> 19.8", "unit": "mg/mL"},
      {"measurement": "solubility", "setting": "[4]; pure water, pH 6.1, water, Pure water (pH 6.1), read-out: Solubility, Pure water (pH 6.1)", "value": "> 11", "unit": "mg/mL"},
      {"measurement": "hygroscopicity (in words)", "setting": "[5]", "value": "minimal hygroscopicity"},
      {"measurement": "Moisture weight gain (%)", "setting": "[5]; relative humidity 92.5%, 48 hours, room temperature", "value": 1.56, "unit": "%"},
      {"measurement": "mean aortic pressure", "setting": "[6]", "value": "significantly reduce"},
      {"measurement": "mean pulmonary artery pressure", "setting": "[6]", "value": "significantly reduce"},
      {"measurement": "selectivity for the reduction of pulmonary artery pressure", "setting": "[6]", "value": "strong selectivity"},
      {"measurement": "IC50", "setting": "PDE5; PDE5", "value": 0.00228, "unit": "µM"},
      {"measurement": "activity and selectivity for PDE5 enzyme (in words)", "setting": "PDE5; in vitro enzyme inhibitors screening test", "value": "high activity and selectivity"},
      {"measurement": "IC50", "setting": "PDE11; PDE11", "value": 6.09, "unit": "µM"},
      {"measurement": "IC50(PDEs)/IC50(PDE5)", "setting": "PDE11; PDE11 vs PDE5", "value": 2671},
      {"measurement": "IC50", "setting": "PDE7; PDE7", "value": "> 100", "unit": "µM"},
      {"measurement": "IC50(PDEs)/IC50(PDE5)", "setting": "PDE7; PDE7 vs PDE5", "value": ">10000"},
      {"measurement": "IC50", "setting": "PDE10; PDE10", "value": "> 100", "unit": "µM"},
      {"measurement": "IC50(PDEs)/IC50(PDE5)", "setting": "PDE10; PDE10 vs PDE5", "value": ">10000"},
      {"measurement": "ICP value (cavernous peak pressure)", "setting": "[7]", "value": "significantly increased"},
      {"measurement": "ICP/BP values (cavernous peak pressure/carotid arterial blood pressure)", "setting": "[7]", "value": "significantly increased"},
      {"measurement": "component", "setting": "[8]", "value": "constant"},
      {"measurement": "crystal water", "setting": "[8]", "value": "no"},
      {"measurement": "stability", "setting": "[8]", "value": "stable"},
      {"measurement": "static", "setting": "[8]", "value": "no"},
      {"measurement": "IC50", "setting": "PDE1; PDE1", "value": 0.462, "unit": "µM"},
      {"measurement": "IC50(PDEs)/IC50(PDE5)", "setting": "PDE1; PDE1 vs PDE5", "value": 203},
      {"measurement": "purity", "setting": "[9]; 0 day", "value": 99.79, "unit": "%"},
      {"measurement": "trait", "setting": "[9]; 0 day", "value": "white"},
      {"measurement": "purity", "setting": "[9]; High humidity, 5 days", "value": 99.79, "unit": "%"},
      {"measurement": "trait", "setting": "[9]; High humidity, 5 days", "value": "white"},
      {"measurement": "purity", "setting": "[9]; High humidity, 10 days", "value": 99.80, "unit": "%"},
      {"measurement": "trait", "setting": "[9]; High humidity, 10 days", "value": "white"},
      {"measurement": "purity", "setting": "[9]; High temperature, 5 days", "value": 99.69, "unit": "%"},
      {"measurement": "trait", "setting": "[9]; High temperature, 5 days", "value": "white"},
      {"measurement": "purity", "setting": "[9]; High temperature, 10 days", "value": 99.76, "unit": "%"},
      {"measurement": "trait", "setting": "[9]; High temperature, 10 days", "value": "white"},
      {"measurement": "purity", "setting": "[9]; Light exposure, 5 days", "value": 99.65, "unit": "%"},
      {"measurement": "trait", "setting": "[9]; Light exposure, 5 days", "value": "white"},
      {"measurement": "purity", "setting": "[9]; Light exposure, 10 days", "value": 99.68, "unit": "%"},
      {"measurement": "trait", "setting": "[9]; Light exposure, 10 days", "value": "white"},
      {"measurement": "chemical stability (in words)", "setting": "[9]; high temperature, high humidity, light exposure", "value": "stable"},
      {"measurement": "IC50", "setting": "PDE4; PDE4", "value": 4.07, "unit": "µM"},
      {"measurement": "IC50(PDEs)/IC50(PDE5)", "setting": "PDE4; PDE4 vs PDE5", "value": 1785}
    ]},
    {"molecule": "CCCOc1ccc(S(=O)(=O)N(C)CCN2CCCC2)cc1-c1nc2c(CCC)nn(C)c2c(=O)[nH]1", "note": "(as salt: maleate) [Maleate of compound Z, 1-methyl-5-{2-propoxy-5-[[1-methyl-1-(2-pyrrolidin-1-yl)ethyl]aminosulfonyl]phenyl}-3-propyl-1,6-dihydro-7H-pyrazolo[4,3-D]pyrimidin-7-one maleate]", "values": [
      {"measurement": "melting point", "value": "162.5 to 163.3", "unit": "°C"}
    ]}
  ]
}
